# Patent publication US11046680B1, “Heteroaryl-substituted triazoles as APJ receptor agonists” (priority 2016, dated 2021)
# Molecular target: human APJ receptor (Homo sapiens (Human), UniProt P35414)
# Test: biochemical
# Assay type: biochemical
# Conditions: [35S]GTPγS binding, CHO membranes expressing human APJ receptor; read-out: Activity hAPJ SPA EC50 IP
# How it was run: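 Membranes of a stable CHO line carrying human APJ (pFLAG-CMV-3) were used in a GTPγS binding format; buffer GDP, MgCl2 and NaCl were optimized, and plates were read after 90 min at RT.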
# Chain of human APJ receptor (P35414 whole entry): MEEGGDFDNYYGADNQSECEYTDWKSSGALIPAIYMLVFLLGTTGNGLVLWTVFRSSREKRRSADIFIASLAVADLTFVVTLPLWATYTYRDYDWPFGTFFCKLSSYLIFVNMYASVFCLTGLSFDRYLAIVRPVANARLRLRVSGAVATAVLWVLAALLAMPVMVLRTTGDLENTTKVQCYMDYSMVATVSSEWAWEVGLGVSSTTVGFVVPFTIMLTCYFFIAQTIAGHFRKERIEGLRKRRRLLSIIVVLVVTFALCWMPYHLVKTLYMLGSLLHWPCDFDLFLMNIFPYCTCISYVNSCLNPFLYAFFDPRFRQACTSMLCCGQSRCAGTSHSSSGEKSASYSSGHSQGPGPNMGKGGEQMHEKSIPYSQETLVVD
row,SMILES,EC50
1,"COc1ncnc(OC)c1-n1c(NS(=O)(=O)[C@@H](C)[C@H](OC)c2ncc(C)cn2)nnc1-c1csc(C)n1 [Example 5.0, (1R,2S)-N-(4-(4,6-dimethoxypyrimidin-5-yl)-5-(2-methylthiazol-4-yl)-4H-1,2,4-triazol-3-yl)-1-methoxy-1-(5-methylpyrimidin-2-yl)propane-2-sulfonamide]",4.1 nM
2,"COc1ncnc(OC)c1-n1c(NS(=O)(=O)[C@@H](C)[C@H](OC)c2ccc(Cl)cn2)nnc1-c1ccn(C)n1 (single isomer, unassigned) [Example 288.0]",1.3 nM
3,"COc1ccc(NCCO)cc1-n1c(NS(=O)(=O)CCc2ccc(Cl)cc2)nnc1-c1cccs1 [Example 251.0, 2-(4-chlorophenyl)-N-(4-(5-((2-hydroxyethyl)amino)-2-methoxyphenyl)-5-(2-thiophenyl)-4H-1,2,4-triazol-3-yl)ethanesulfonamide]",460 nM
4,"COc1ncnc(OC)c1-n1c(NS(=O)(=O)[C@@H](C)[C@H](C)c2ncc(Cl)cn2)nnc1-c1cnn2ccccc12 [Example 440.0, (2S,3R)-3-(5-chloropyrimidin-2-yl)-N-(4-(4,6-dimethoxypyrimidin-5-yl)-5-(pyrazolo[1,5-a]pyridin-3-yl)-4H-1,2,4-triazol-3-yl)butane-2-sulfonamide]",0.96 nM
5,"CC(C)O[C@@H](c1ncc(Cl)cn1)[C@H](C)S(=O)(=O)Nc1nnc(-c2cnn(C)c2)n1C1CC1 [Example 536.0, (1S,2S)-1-(5-chloro-2-pyrimidinyl)-N-(4-cyclopropyl-5-(1-methyl-1H-pyrazol-4-yl)-4H-1,2,4-triazol-3-yl)-1-(2-propanyloxy)-2-propanesulfonamide]",70 nM
6,"COc1cccc(OC)c1-n1c(NS(=O)(=O)[C@H](C)[C@@H](OC)c2ccc(C#N)cc2C#N)nnc1-c1ccn(C)n1 (single isomer, unassigned) [Example 265.0, (1S,2R)-1-(2,4-dicyanophenyl)-N-(4-(2,6-dimethoxyphenyl)-5-(1-methyl-1H-pyrazol-3-yl)-4H-1,2,4-triazol-3-yl)-1-methoxy-2-propanesulfonamide or (1R,2S)-1-(2,4-dicyanophenyl)-N-(4-(2,6-dimethoxyphenyl)-5-(1-methyl-1H-pyrazol-3-yl)-4H-1,2,4-triazol-3-yl)-1-methoxy-2-propanesulfonamide]",70 nM
7,"COc1cccc(OC)c1-n1c(NS(=O)(=O)[C@H](C)Cc2ncc(F)cn2)nnc1-c1ccncn1 (single isomer, unassigned) [Example 39.0, (R)-N-(4-(2,6-dimethoxyphenyl)-5-(pyrimidin-4-yl)-4H-1,2,4-triazol-3-yl)-1-(5-fluoropyrimidin-2-yl)propane-2-sulfonamide or (R)-N-(4-(2,6-dimethoxyphenyl)-5-(pyrimidin-4-yl)-4H-1,2,4-triazol-3-yl)-1-(5-fluoropyrimidin-2-yl)propane-2-sulfonamide]",230 nM
8,"COc1cccc(OC)c1-n1c(NS(=O)(=O)CCc2ccc(Cl)cc2)nnc1-c1cnco1 [Example 138.0, 2-(4-chlorophenyl)-N-(4-(2,6-dimethoxyphenyl)-5-(oxazol-5-yl)-4H-1,2,4-triazol-3-yl)ethanesulfonamide]",586 nM
9,"COc1cccc(OC)c1-n1c(NS(=O)(=O)[C@@H](C)[C@H](OC)c2ncc(Cl)cn2)nnc1-c1n[nH]c2ccc(Cl)cc12 [Example 422.0, (1R,2S)-N-(5-(5-chloro-1H-indazol-3-yl)-4-(2,6-dimethoxyphenyl)-4H-1,2,4-triazol-3-yl)-1-(5-chloropyrimidin-2-yl)-1-methoxypropane-2-sulfonamide]",6.2 nM
10,"COc1cccc(OC)c1-n1c(NS(=O)(=O)[C@@H](C)[C@H](C)c2cnc(C)cn2)nnc1-c1ccn(C)n1 [Example 306.0, (2S,3R)-N-(4-(2,6-dimethoxyphenyl)-5-(1-methyl-1H-pyrazol-3-yl)-4H-1,2,4-triazol-3-yl)-3-(5-methyl-2-pyrazinyl)-2-butanesulfonamide]",2.5 nM
11,"COc1cccc(OC)c1-n1c(NS(=O)(=O)[C@H]2CCCNC2)nnc1-c1ccn(C)n1 (mixture of isomers) [Example 263.0, (3R)-N-(4-(2,6-dimethoxyphenyl)-5-(1-methyl-1H-pyrazol-3-yl)-4H-1,2,4-triazol-3-yl)-3-piperidinesulfonamide and (3S)-N-(4-(2,6-dimethoxyphenyl)-5-(1-methyl-1H-pyrazol-3-yl)-4H-1,2,4-triazol-3-yl)-3-piperidinesulfonamide]",180 nM
12,"COc1cccc(OC)c1-n1c(NS(=O)(=O)[C@H](C)[C@@H](OC)c2ncc(F)cn2)nnc1-c1ccn(C)n1 (single isomer, unassigned) [Example 117.0, (1S,2R)-N-(4-(2,6-dimethoxyphenyl)-5-(1-methyl-1H-pyrazol-3-yl)-4H-1,2,4-triazol-3-yl)-1-(5-fluoropyrimidin-2-yl)-1-methoxypropane-2-sulfonamide or (1R,2S)-N-(4-(2,6-dimethoxyphenyl)-5-(1-methyl-1H-pyrazol-3-yl)-4H-1,2,4-triazol-3-yl)-1-(5-fluoropyrimidin-2-yl)-1-methoxypropane-2-sulfonamide]",0.69 nM
13,"CO[C@H](c1ncc(Cl)cn1)[C@H](C)S(=O)(=O)Nc1nnc(-c2cnn3ccccc23)n1C1CC1 [Example 507.0, (1R,2S)-1-(5-chloropyrimidin-2-yl)-N-(4-cyclopropyl-5-(pyrazolo[1,5-a]pyridin-3-yl)-4H-1,2,4-triazol-3-yl)-1-methoxypropane-2-sulfonamide]",38 nM
14,"COCC[C@@H]([C@H](C)c1ncc(F)cn1)S(=O)(=O)Nc1nnc(-c2nc(C)cs2)n1-c1c(OC)cccc1OC (single isomer, unassigned) [Example 19.0]",6.3 nM
15,"CCO[C@@H](c1ncc(Cl)cn1)[C@H](C)S(=O)(=O)Nc1nnc(-c2ccn(C)n2)n1-c1c(OC)cccc1OC (single isomer, unassigned) [Example 353.0, (1S,2S)-1-(5-chloropyrimidin-2-yl)-N-(4-(2,6-dimethoxyphenyl)-5-(1-methyl-1H-pyrazol-3-yl)-4H-1,2,4-triazol-3-yl)-1-ethoxypropane-2-sulfonamide or (1R,2R)-1-(5-chloropyrimidin-2-yl)-N-(4-(2,6-dimethoxyphenyl)-5-(1-methyl-1H-pyrazol-3-yl)-4H-1,2,4-triazol-3-yl)-1-ethoxypropane-2-sulfonamide]",0.22 nM
16,"CO[C@H](c1ncc(Cl)cn1)[C@H](C)S(=O)(=O)Nc1nnc(-c2n[nH]c3c2CCC3)n1C1(C)CCC1 [Example 492.0, (1R,2S)-1-(5-chloropyrimidin-2-yl)-1-methoxy-N-(4-(1-methylcyclobutyl)-5-(1,4,5,6-tetrahydrocyclopenta[c]pyrazol-3-yl)-4H-1,2,4-triazol-3-yl)propane-2-sulfonamide]",34 nM
17,"COc1cccc(OC)c1-n1c(NS(=O)(=O)CCc2ccc(F)cc2Br)nnc1-c1nccs1 [Example 140.0, 2-(2-bromo-4-fluorophenyl)-N-(4-(2,6-dimethoxyphenyl)-5-(thiazol-2-yl)-4H-1,2,4-triazol-3-yl)ethanesulfonamide]",24.5 nM
18,"COc1cccc(OC)c1-n1c(NS(=O)(=O)[C@@H](C)[C@H](OC)c2cnc(C)cn2)nnc1-c1ccn(C(F)F)n1 [Example 223.0, (1R,2S)-N-(5-(1-(difluoromethyl)-1H-pyrazol-3-yl)-4-(2,6-dimethoxyphenyl)-4H-1,2,4-triazol-3-yl)-1-methoxy-1-(5-methyl-2-pyrazinyl)-2-propanesulfonamide]",2.9 nM
19,"COc1cccc(OC)c1-n1c(NS(=O)(=O)[C@H](C)Cc2ncc(F)cn2)nnc1-c1cnccn1 (single isomer, unassigned) [Example 30.0, (R)-N-(4-(2,6-dimethoxyphenyl)-5-(pyrazin-2-yl)-4H-1,2,4-triazol-3-yl)-1-(5-fluoropyrimidin-2-yl)propane-2-sulfonamide or (S)-N-(4-(2,6-dimethoxyphenyl)-5-(pyrazin-2-yl)-4H-1,2,4-triazol-3-yl)-1-(5-fluoropyrimidin-2-yl)propane-2-sulfonamide]",350 nM
20,"COc1cccc(OC)c1-n1c(NS(=O)(=O)CCc2ccc(F)cc2C#N)nnc1-c1nc(C(C)C)cs1 [Example 151.0, 2-(2-cyano-4-fluorophenyl)-N-(4-(2,6-dimethoxyphenyl)-5-(4-isopropylthiazol-2-yl)-4H-1,2,4-triazol-3-yl)ethanesulfonamide]",31 nM
21,"C=CCO[C@@H](c1ncc(F)cn1)[C@@H](C)S(=O)(=O)Nc1nnc(-c2nc(C)cs2)n1-c1c(OC)cccc1OC (single isomer, unassigned) [Example 169.0, (1S,2R)-1-(Allyloxy)-N-(4-(2,6-dimethoxyphenyl)-5-(4-methylthiazol-2-yl)-4H-1,2,4-triazol-3-yl)-1-(5-fluoropyrimidin-2-yl)propane-2-sulfonamide or (1R,2S)-1-(allyloxy)-N-(4-(2,6-dimethoxyphenyl)-5-(4-methylthiazol-2-yl)-4H-1,2,4-triazol-3-yl)-1-(5-fluoropyrimidin-2-yl)propane-2-sulfonamide]",0.46 nM
22,"COc1cccc(OC)c1-n1c(NS(=O)(=O)C[C@H](OC)c2ccc(F)cc2S(C)(=O)=O)nnc1-c1ccn(C)n1 (single isomer, unassigned) [Example 372.0, (R)-N-(4-(2,6-Dimethoxyphenyl)-5-(1-methyl-1H-pyrazol-3-yl)-4H-1,2,4-triazol-3-yl)-2-(4-fluoro-2-(methylsulfonyl)phenyl)-2-methoxyethanesulfonamide or (S)-N-(4-(2,6-dimethoxyphenyl)-5-(1-methyl-1H-pyrazol-3-yl)-4H-1,2,4-triazol-3-yl)-2-(4-fluoro-2-(methylsulfonyl)phenyl)-2-methoxyethanesulfonamide]",1.4 nM
23,COc1cccc(OC)c1-n1c(NS(=O)(=O)[C@@H](C)[C@H](C)c2ncc(Cl)cn2)nnc1-c1n[nH]c2ccccc12 [Example 429.0],7.6 nM
